This note sets out measurements from patent EP0013790A1, “Clavulanic acid derivatives, their preparation and pharmaceutical compositions containing them” (BEECHAM GROUP PLC, priority 1978, dated 1980).

In general, MIC refers to the lowest concentration that inhibits growth of the organism.

One experiment relates to E. coli JT 39. The experiment is described as follows: MIC by standard microtitre method, alone and in admixture with ampicillin. As to conditions: Escherichia coli, JT39; compound alone. In kind it is cell-based. The procedure: (§1) The MICs of ampicillin, 9-O-(N-glycyl)-2-amino- ethylclavulanic acid (GAECA) alone and in admixture against a number of bacteria were determined by a standard microtitre method. The results obtained were as follows: The MICs of ampicillin, 9-O-(N-alanyl)-2-amino- ethylclavulanic acid (AAECA) alone and in admixture against a number of bacteria were determined by a standard microtitre method.

A further experiment deals with Klebsiella aerog. E.70. Described as above. In kind it is cell-based. As to conditions: compound alone. As for the experimental part: as §1
Another experiment concerns Proteus C 889. The description is as above. It counts as cell-based. As to conditions: compound alone. As for the experimental part: as §1
The subject of another experiment is Staph. aureus Russell. The description is as above. In kind it is cell-based. As to conditions: compound alone; for MIC: Staphylococcus aureus. As for the experimental part: as §1
The subject of a further experiment is E.Col: E96 (R + strain). In words: Synergistic activity in mice infected intraperitoneally. As to conditions: mice infected intraperitoneally with E.Col: E96 (R + strain); oral and sub-cutaneous route. In kind it is in vivo. From the text:
The results obtained were as follows: • Synergistic activity in Mice infected intraperitoneally with E.Col: E96 (R + strain) [formula]

≈ marks a conversion by molar mass, not a printed value.

As to `C[C@H](N)C(=O)NCCOC/C=C1\O[C@@H]2CC(=O)N2[C@H]1C(=O)O` [AAECA, 9-0-(N-L-alanyl)-2-aminoethylclavulanic acid], the MIC stood at 16 µg/mL (≈ 51.1 µM) with E. coli JT 39, 125 µg/mL (≈ 399 µM) in the experiment on Klebsiella aerog. E.70, 250 µg/mL (≈ 798 µM) with Proteus C 889 and 8 µg/mL (≈ 25.5 µM) in the experiment with Staph. aureus Russell. In the experiment on E.Col: E96 (R + strain), the “Synergistic activity in vivo” value was “good activity in vivo by both the oral and sub-cutaneous route”.

For `CC1(C)S[C@@H]2[C@H](NC(=O)[C@H](N)c3ccccc3)C(=O)N2[C@H]1C(=O)O` [Ampicillin, ampicillin, reference compound], the minimum inhibitory concentration (MIC) in the experiment with E. coli JT 39 is 2000 µg/mL (≈ 5720 µM); in the experiment with Klebsiella aerog. E.70 it was 500 µg/mL (≈ 1430 µM); with Proteus C 889, 2000 µg/mL (≈ 5720 µM); in the experiment with Staph. aureus Russell it was 250 µg/mL (≈ 715 µM). Further, the “MIC (µg/ml) Proteus C 889” value with Proteus C 889 is 1000 µg/mL (≈ 2860 µM). In addition, the “MIC (µg/ml) Staph. aureus Russell” value in the experiment on Staph. aureus Russell was found to be 500 µg/mL (≈ 1430 µM).

Regarding `NCC(=O)NCCOC/C=C1\O[C@@H]2CC(=O)N2[C@H]1C(=O)O` [GAECA, 9-0-(N-Glycyl)-2-aminoethylclavulanic acid], the MIC amounted to 51.2 µg/mL (≈ 171 µM) with E. coli JT 39, 62.5 µg/mL (≈ 209 µM) in the experiment with Klebsiella aerog. E.70, 250 µg/mL (≈ 835 µM) with Proteus C 889 and 8 µg/mL (≈ 26.7 µM) in the experiment on Staph. aureus Russell.
